Results from BindingDB's records for doi:10.1016/j.bmc.2004.10.008 (Mitsubishi Pharma, 2005).
pKi: −log10 of the molar value.

What was measured:
Assay in all cases: [32P] S1P Binding Assay
Conditions in all cases: pH 7.5; 4 °C
[1] = target: Sphingosine 1-phosphate receptor 1 (Homo sapiens, UniProt P21453)
[2] = target: Sphingosine 1-phosphate receptor 3 (Homo sapiens, UniProt Q99500)
[3] = target: T1, Sphingosine 1-phosphate receptor 4 (Homo sapiens, UniProt O95977)
T1 sequence (O95977 whole entry): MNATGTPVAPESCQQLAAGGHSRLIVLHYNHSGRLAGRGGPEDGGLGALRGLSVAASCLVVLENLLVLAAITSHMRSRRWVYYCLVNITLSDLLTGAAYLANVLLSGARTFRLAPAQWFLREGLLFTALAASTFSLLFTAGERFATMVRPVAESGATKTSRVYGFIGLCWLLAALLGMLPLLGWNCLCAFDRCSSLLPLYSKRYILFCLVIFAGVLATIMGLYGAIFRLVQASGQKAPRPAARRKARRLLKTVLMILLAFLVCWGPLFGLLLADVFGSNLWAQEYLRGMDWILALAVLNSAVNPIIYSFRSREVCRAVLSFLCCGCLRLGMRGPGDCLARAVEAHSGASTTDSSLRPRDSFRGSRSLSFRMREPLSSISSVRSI

Chain of Sphingosine 1-phosphate receptor 3 (Q99500 whole entry): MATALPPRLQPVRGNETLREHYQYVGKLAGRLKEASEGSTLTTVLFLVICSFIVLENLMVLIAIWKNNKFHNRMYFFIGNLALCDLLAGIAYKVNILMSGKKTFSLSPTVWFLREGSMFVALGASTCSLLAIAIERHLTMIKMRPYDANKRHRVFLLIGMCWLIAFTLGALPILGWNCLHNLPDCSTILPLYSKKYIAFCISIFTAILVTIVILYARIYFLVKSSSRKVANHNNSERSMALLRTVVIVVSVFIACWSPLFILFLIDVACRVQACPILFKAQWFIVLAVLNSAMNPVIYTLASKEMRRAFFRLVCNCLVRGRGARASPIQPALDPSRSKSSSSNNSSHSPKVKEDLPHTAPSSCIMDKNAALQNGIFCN
Chain of Sphingosine 1-phosphate receptor 1 (P21453 whole entry): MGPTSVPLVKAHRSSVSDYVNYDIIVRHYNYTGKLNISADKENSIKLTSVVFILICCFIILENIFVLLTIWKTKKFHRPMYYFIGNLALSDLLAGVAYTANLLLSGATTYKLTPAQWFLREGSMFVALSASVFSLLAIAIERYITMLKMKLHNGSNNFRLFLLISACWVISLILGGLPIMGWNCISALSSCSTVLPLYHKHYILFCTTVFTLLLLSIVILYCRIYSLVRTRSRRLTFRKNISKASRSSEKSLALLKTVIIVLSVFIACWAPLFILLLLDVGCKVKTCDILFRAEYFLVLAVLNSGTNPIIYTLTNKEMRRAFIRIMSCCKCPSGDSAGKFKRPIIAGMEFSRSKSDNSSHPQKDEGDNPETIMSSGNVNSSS

Compound: CCCCCCCCCCCCC/C=C\C(O)C(N)COP(=O)(O)O (stereo unspecified) [{[(4Z)-2-amino-3-hydroxyoctadec-4-en-1-yl]oxy}phosphonic acid]
- pKi [1]: 8.92
- pKi [2]: 8.27
- pKi [3]: 8.57

Compound: CCCCCCCCc1ccc(CC[C@@](N)(CO)COP(=O)(O)O)cc1
- pKi [3]: 6.98

Compound: CCCCCCCCc1ccc(CCC(N)(CO)COP(=O)(O)O)cc1 (stereo unspecified) [{2-amino-3-hydroxy-2-[2-(4-octylphenyl)ethyl]propoxy}phosphonic acid]
- pKi [3]: 7.43

Compound: CCCCCCCCc1ccc(CC[C@](N)(CO)COP(=O)(O)O)cc1
- pKi [3]: 7.64
